In patent publication US11331369B2, “Endoparasitic depsipeptides” (Zoetis Services LLC, priority 2017, dated 2022):

Assays:
[1] = test system: third stage larvae of Haemonchus contortus; test: Haemonchus contortus L3 (HcL3) Assay; type: cell-based; conditions: 96 h, read-out: HcL3 Minimum Effective Dose (MED)
[2] = test system: 4th stage larvae (L4) of Dirofilaria immitis; test: Dirofilaria immitis, L4 Stage (DiL4) In Vitro Assay; type: cell-based; conditions: Dirofilaria immitis, 72 h, read-out: DiL4 Minimum Effective Dose (MED), approximately 72 hours incubation; L4 larvae assessed for survival or paralysis

SMILES	minimal effective concentration [1]	minimal effective concentration [2]
CC(C)C[C@H]1C(=O)O[C@H](Cc2ccc(Cn3cccc3C#N)cc2)C(=O)N(C)[C@@H](CC(C)C)C(=O)O[C@H](C)C(=O)N(C)[C@@H](CC(C)C)C(=O)O[C@H](Cc2ccc(Cn3cccc3C#N)cc2)C(=O)N(C)[C@@H](CC(C)C)C(=O)O[C@H](C)C(=O)N1C [Example 9-16, 1-[[4-[[(2R,5S,8R,11S,14R,17S,20R,23S)-14-[[4-[(2-cyanopyrrol-1-yl)methyl]phenyl]methyl]-5,11,17,23-tetraisobutyl-4,8,10,16,20,22-hexamethyl-3,6,9,12,15,18,21,24-octaoxo-1,7,13,19-tetraoxa-4,10,16,22-tetrazacyclotetracos-2-yl]methyl]phenyl]methyl]pyrrole-2-carbonitrile]	≤ 1 µM	≤ 0.0001 µM
CC(C)C[C@H]1C(=O)O[C@H](Cc2ccc(Cn3ccnc3Cl)cc2)C(=O)N(C)[C@@H](CC(C)C)C(=O)O[C@H](C)C(=O)N(C)[C@@H](CC(C)C)C(=O)O[C@H](Cc2ccc(Cn3ccnc3Cl)cc2)C(=O)N(C)[C@@H](CC(C)C)C(=O)O[C@H](C)C(=O)N1C [Example 6-9, (3S,6R,9S,12R,15S,18R,21S,24R)-6,18-bis(4-((2-chloro-1H-imidazol-1-yl)methyl)benzyl)-3,9,15,21-tetraisobutyl-4,10,12,16,22,24-hexamethyl-1,7,13,19-tetraoxa-4,10,16,22-tetraazacyclotetracosan-2,5,8,11,14,17,20,23-octaone]	1 to 10 µM	≤ 0.0001 µM
COCc1ccnn1Cc1ccc(C[C@H]2OC(=O)[C@H](CC(C)C)N(C)C(=O)[C@@H](C)OC(=O)[C@H](CC(C)C)N(C)C(=O)[C@@H](Cc3ccc(Cn4nccc4COC)cc3)OC(=O)[C@H](CC(C)C)N(C)C(=O)[C@@H](C)OC(=O)[C@H](CC(C)C)N(C)C2=O)cc1 [Example 1b-166, (3S,6R,9S,12R,15S,18R,21S,24R)-3,9,15,21-tetraisobutyl-6,18-bis(4-((5-(methoxymethyl)-1H-pyrazol-1-yl)methyl)benzyl)-4,10,12,16,22,24-hexamethyl-1,7,13,19-tetraoxa-4,10,16,22-tetraazacyclotetracosan-2,5,8,11,14,17,20,23-octaone]	1 to 10 µM	≤ 0.0001 µM
Cc1ccnn1Cc1ccc(C[C@H]2OC(=O)[C@H](CC(C)C)N(C)C(=O)[C@@H](C)OC(=O)[C@H](CC(C)C)N(C)C(=O)[C@@H](Cc3ccc(Cn4nccc4C)cc3)OC(=O)[C@H](CC(C)C)N(C)C(=O)[C@@H](C)OC(=O)[C@H](CC(C)C)N(C)C2=O)cc1 [Example 1b-160, (3S,6R,9S,12R,15S,18R,21S,24R)-3,9,15,21-tetraisobutyl-4,6,10,16,18,22-hexamethyl-12,24-bis(4-((5-methyl-1H-pyrazol-1-yl)methyl)benzyl)-1,7,13,19-tetraoxa-4,10,16,22-tetraazacyclotetracosan-2,5,8,11,14,17,20,23-octaone]	≤ 1 µM	0.0001 to 0.001 µM
CC(C)C[C@H]1C(=O)O[C@H](Cc2ccc(Cn3nccc3-c3ccccn3)cc2)C(=O)N(C)[C@@H](CC(C)C)C(=O)O[C@H](C)C(=O)N(C)[C@@H](CC(C)C)C(=O)O[C@H](Cc2ccc(Cn3nccc3-c3ccccn3)cc2)C(=O)N(C)[C@@H](CC(C)C)C(=O)O[C@H](C)C(=O)N1C [Example 1b-173, (3S,6R,9S,12R,15S,18R,21S,24R)-3,9,15,21-tetraisobutyl-4,6,10,16,18,22-hexamethyl-12,24-bis(4-((5-(pyridin-2-yl)-1H-pyrazol-1-yl)methyl)benzyl)-1,7,13,19-tetraoxa-4,10,16,22-tetraazacyclotetracosan-2,5,8,11,14,17,20,23-octaone]	≤ 1 µM	0.0001 to 0.001 µM
CC(C)C[C@H]1C(=O)O[C@H](Cc2ccc(Cn3nc(C#N)cc3C#N)cc2)C(=O)N(C)[C@@H](CC(C)C)C(=O)O[C@H](C)C(=O)N(C)[C@@H](CC(C)C)C(=O)O[C@H](Cc2ccc(Cn3nc(C#N)cc3C#N)cc2)C(=O)N(C)[C@@H](CC(C)C)C(=O)O[C@H](C)C(=O)N1C [Example 1b-66, 1,1′-(((((2R,5S,8R,11S,14R,17S,20R,23S)-5,11,17,23-tetraisobutyl-4,8,10,16,20,22-hexamethyl-3,6,9,12,15,18,21,24-octaoxo-1,7,13,19-tetraoxa-4,10,16,22-tetraazacyclotetracosane-2,14-diyl)bis(methylene))bis(4,1-phenylene))bis(methylene))bis(1H-pyrazole-3,5-dicarbonitrile)]	≤ 1 µM	≤ 0.0001 µM
CC(C)C[C@H]1C(=O)O[C@H](Cc2ccc(C(C3CC3)n3cccn3)cc2)C(=O)N(C)[C@@H](CC(C)C)C(=O)O[C@H](C)C(=O)N(C)[C@@H](CC(C)C)C(=O)O[C@H](Cc2ccc(C(C3CC3)n3cccn3)cc2)C(=O)N(C)[C@@H](CC(C)C)C(=O)O[C@H](C)C(=O)N1C (stereo partly drawn) [Example 1c-4, (3S,6R,9S,12R,15S,18R,21S,24R)-6,18-bis(4-(cyclopropyl(1H-pyrazol-1-yl)methyl)benzyl)-3,9,15,21-tetraisobutyl-4,10,12,16,22,24-hexamethyl-1,7,13,19-tetraoxa-4,10,16,22-tetraazacyclotetracosan-2,5,8,11,14,17,20,23-octaone]	≤ 1 µM	0.0001 to 0.001 µM
CC(C)C[C@H]1C(=O)O[C@H](Cc2ccc(Cn3cccc3C(N)=O)cc2)C(=O)N(C)[C@@H](CC(C)C)C(=O)O[C@H](C)C(=O)N(C)[C@@H](CC(C)C)C(=O)O[C@H](Cc2ccc(Cn3cccc3C(N)=O)cc2)C(=O)N(C)[C@@H](CC(C)C)C(=O)O[C@H](C)C(=O)N1C [Example 9-32, 1-[[4-[[(2R,5S,8R,11 S,14R,17S,20R,23S)-14-[[4-[(2-carbamoylpyrrol-1-yl)methyl]phenyl]methyl]-5,11,17,23-tetraisobutyl-4,8,10,16,20,22-hexamethyl-3,6,9,12,15,18,21,24-octaoxo-1,7,13,19-tetraoxa-4,10,16,22-tetrazacyclotetracos-2-yl]methyl]phenyl]methyl]pyrrole-2-carboxamide]	≤ 1 µM	0.0001 to 0.001 µM
CC(C)C[C@H]1C(=O)O[C@H](Cc2ccc(Cn3cccc3C#N)cc2)C(=O)N(C)[C@@H](CC(C)C)C(=O)O[C@H](C)C(=O)N(C)[C@@H](CC(C)C)C(=O)O[C@H](Cc2ccccc2)C(=O)N(C)[C@@H](CC(C)C)C(=O)O[C@H](C)C(=O)N1C [Example 10-13, 1-[[4-[[(2R,5S,8R,11S,14R,17S,20R,23S)-14-benzyl-5,11,17,23-tetraisobutyl-4,8,10,16,20,22-hexamethyl-3,6,9,12,15,18,21,24-octaoxo-1,7,13,19-tetraoxa-4,10,16,22-tetrazacyclotetracos-2-yl]methyl]phenyl]methyl]pyrrole-2-carbonitrile]	1 to 10 µM	0.0001 to 0.001 µM
CC(C)C[C@H]1C(=O)O[C@H](Cc2ccc(C(C)(C)n3cc(OC(C)C)cn3)cc2)C(=O)N(C)[C@@H](CC(C)C)C(=O)O[C@H](C)C(=O)N(C)[C@@H](CC(C)C)C(=O)O[C@H](Cc2ccc(C(C)(C)n3cc(OC(C)C)cn3)cc2)C(=O)N(C)[C@@H](CC(C)C)C(=O)O[C@H](C)C(=O)N1C [Example 1c-10, (3S,6R,9S,12R,15S,18R,21S,24R)-3,9,15,21-tetraisobutyl-6,18-bis(4-(2-(4-isopropoxy-1H-pyrazol-1-yl)propan-2-yl)benzyl)-4,10,12,16,22,24-hexamethyl-1,7,13,19-tetraoxa-4,10,16,22-tetraazacyclotetracosan-2,5,8,11,14,17,20,23-octaone]	≤ 1 µM	≤ 0.0001 µM
